Results reported in patent US20170121351A1, “Synthesis of Zinc-Lysine Complex From Zinc Chloride” (Colgate-Palmolive Company, priority 2014, published 2017).

Test: Zeta potential
Format: physicochemical
Protocol: In certain embodiments, the ZLC, e.g., any of Complex 2, et seq. can have a zeta potential on the order of +10 to +60, e.g., between +20 and +50. Zeta potential is measured as described below. The zeta potential indicates the degree of repulsion between adjacent, similarly charged particles in a dispersion. For molecules and particles that are small enough to be influenced by […], a high zeta potential will tend to confer stability, i.e., the particles will tend to repel one another, and the solution or dispersion will resist aggregation. When the zeta potential is low, attraction exceeds repulsion and the dispersion will break and flocculate. Here, it is desirable to have a zeta potential that is high enough in formulation to deter aggregation, but low enough to allow flocculation and blockage of the pores. […] Having a similar zeta potential, the ZLC, e.g., any of Complex 2, et seq. will behave similarly and flocculate when introduced into a pore and becomes hydrated. In contrast, zinc chloride has a zeta potential of about 0, which is much lower than current antiperspirant salts and the current disclosure.

[Cl-].[Cl-].[Zn+2] [zinc chloride]
zeta potential: about 0
